Results published in EP0179667B1, “N6-substituted adenosines” (priority 1984, dated 1986).

Key:
adenosine A1 receptor = target: T1, adenosine A1 receptor (Rattus norvegicus, UniProt P25099); test: Adenosine Receptor Binding - A1 Receptor Affinity (RBA1); details: [3H]-CHA, rat whole brain membranes; read-out: RBA-1
T1 construct: Whole brain minus cerebellum and brainstem from male Long Evans rats (150-200 g) was homogenized; from tissue; host or cells: rat whole brain minus cerebellum and brainstem, membrane homogenate
T1 sequence (P25099 1-326): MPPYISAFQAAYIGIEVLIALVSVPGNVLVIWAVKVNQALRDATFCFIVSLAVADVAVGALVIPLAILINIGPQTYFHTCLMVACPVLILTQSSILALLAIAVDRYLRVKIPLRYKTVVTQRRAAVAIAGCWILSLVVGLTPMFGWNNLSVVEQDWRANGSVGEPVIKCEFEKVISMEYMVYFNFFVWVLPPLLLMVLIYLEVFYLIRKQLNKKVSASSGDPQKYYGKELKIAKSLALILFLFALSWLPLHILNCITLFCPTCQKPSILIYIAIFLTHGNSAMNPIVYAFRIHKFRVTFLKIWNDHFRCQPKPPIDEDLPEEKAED
Experimental: Adenosine Receptor Binding - A1 Receptor Affinity (RBA1)
Whole brain minus cerebellum and brainstem from male Long Evans rats (150-200 g) was homogenized in 30 volumes of ice-cold 0.05 M Tris-HCI buffer pH 7.7 using a Brinkman Polytron PT-10 (setting number 6 for 20 seconds) and centrifuged for ten minutes at 20,000 x g (Sorvall RC-2), 4°C. The supernatant was discarded, and the pellet was resuspended and centrifuged as before. The pellet was resuspended in 20 ml Tris-HCI buffer containing two International Units/ml of adenosine deaminase (Sigma type III from calf intestinal mucosa), incubated at 37°C for 30 minutes, then subsequently at 0°C for ten minutes. The homogenate was again centrifuged, and the final pellet was resuspended in ice-cold 0.05 M Tris-HCI buffer pH 7.7 to a concentration of 20 mg/ml original wet tissue weight and used immediately.
Tissue homogenate (10 mg/ml) was incubated in 0.05 M Tris-HCI buffer pH 7.7 containing 1.0 nM [^3H]-N^6-cyclohexyladenosine (^3H]-CHA) with or without test agents in triplicate for one hour at 25°C. Incubation volume was 2 ml. Unbound [^3H]-CHA was separated by rapid filtration under reduced pressure through Whatman glass fiber (GF/B) filters. The filters were rinsed three times with 5 ml of ice cold 0.05 M Tris-HCI buffer pH 7.7. The radio-labeled ligand retained on the filter was measured by liquid scintillation spectrophotometry after shaking the filters for one hour or longer on a mechanical shaker in 10 ml of Beckman Ready Solv HP scintillation cocktail.
Nonspecific binding was defined as the binding which occurred in the presence of 1 mM thophylline. […] The Scatchard plot was calculated by linear regression of the line obtained by plotting the amount of radioligand bound (pmoles/gram of tissue) versus [formula] Since the amount of radioligand bound was a small fraction of the total amount added, free radioligand was defined as the concentration (nM) of radioligand added to the incubation mixture. The Hill coefficient was calculated by linear regression of the line obtained by plotting the log of the bound radioligand vs the log of the [formula] The maximal number of binding sites (Bmax) was calculated from the Scatchard plot.

conscious rat = test: Antihypertensive evaluation (AHP3): direct monitoring of aortic blood pressure and heart rate; type: in vivo
Excerpt: This test procedure is described in the following paragraphs. A Method for the Direct Monitoring of Aortic Blood Pressure and Heart Rate from Conscious Rats The continuous monitoring of pulsatile blood pressure (BP) from unrestrained conscious rats surgically equipped with polyethylene cannulas was accomplished by means of a computer assisted data capture scheme (CADCS). The basic elements of the methodology are the cannulation procedure and the CADCS. Cannulation Procedure: Rats were anesthetized with Telazol (1:1 tiletamine HCI and zolazepam HCI); 20-40 mg/kg IM and the descending aorta exposed via a midline incision. Cannulas fabricated from polyethylene tubing were inserted into the aorta via an undersized puncture hole below the renal arteries. […] The cannulas, consisting of a PE100 (0.86 mm ID) body and a PE50 (0.58 mm ID) tip, were attached to a trocar, inserted through the psoas muscle, and passed subcutaneously along the midline of the back and externalized between the ears. The cannulas were anchored to the posas muscle and between the scaluale (3-0 green braided suture). The midline incision was closed in two steps (muscle first, skin second) using continuous over-and over sutures (4-0 chronic). Each rat was then given penicillin 30,000 units subcutaneously (Penicillin G Procaine Sterile Suspension). The rats were fitted with a harness-spring-swivel assembly designed to protect the cannula and to provide the rat relative freedom of movement. […] While on test, each rat received a continuous slow infusion of heparinized saline solution (approximately 400 I or 40 units of heparin per 24 hour period) to prevent clot formation. […] The data were first stored on the data concentrator disk and then transferred to a magnetic tape for analysis and report generation by the main research computer. The overall scheme involved modulating the primary signal from the pressure transducer, generating the primary data set of the one-minute values for systolic, diastolic, and mean blood pressures and heart rate by the in-lab microcomputer and the storage, analysis, and report generation by the main research computer. The transducers were connected to analog signal conditioning mocules. The modules provided a regulated excitation voltage for the transducers, amplification as required to interface the microprocessors and an active low pass filter to compensate for the pressure wave form distortion produced by the flexible, fluid filled, narrow cannula. […] The microcomputer controlled the sequential acqusition of data from the modular interface units through an internal synchronous time-of-day clock/time base generator. […] The microcomputer processed each blood pressure sample as it was received to produce "running average" values for heart rate, and mean, systolic and diastolic blood pressures.

Structure (SMILES) | IC50 (adenosine A1 receptor) | also measured
OC[C@H]1O[C@@H](n2cnc3c(NCC4=CCCCc5ccccc54)ncnc32)[C@H](O)[C@@H]1O [Example 26, N^6-(1-benzocycloheptenyl)methyladenosine] | 713 nM | –
COc1ccc2c(c1)C(Nc1ncnc3c1ncn3[C@H]1O[C@H](CO)[C@@H](O)[C@H]1O)CCC2 (stereo partly drawn) [Example 9, (S)-N^6-(7-methoxy-1-tetralinyl)-adenosine] | 4550 nM | change in MAP (Mean Arterial Pressure) (conscious rat; 3 mg/kg, Hour 5, conscious rat): 9%
CC1CCc2ccccc2C1Nc1ncnc2c1ncn2[C@@H]1O[C@H](CO)[C@@H](O)[C@H]1O (stereo partly shown) [Example 4, N^6-[1-(2-Methyl)-tetralinyl]-adenosine] | 19 nM | –
OC[C@H]1O[C@@H](n2cnc3c(NCC4=CCc5ccccc54)ncnc32)[C@H](O)[C@@H]1O [Example 22, N^6-[1H-inden-3-yl]methyladenosine] | 57 nM | –
OC[C@H]1O[C@@H](n2cnc3c(NC4CCCc5ccc(O)cc54)ncnc32)[C@H](O)[C@@H]1O (stereo partly shown) [Example 17] | 71 nM | –
OC[C@H]1O[C@@H](n2cnc3c(NC4CCCc5ccccc54)ncnc32)[C@H](O)[C@@H]1O (stereo partly drawn) [Example 2, (R)-N^6-[1-Tetralinyl]-adenosine] | 44 nM | –
OC[C@H]1O[C@@H](n2cnc3c(NCC4CCc5ccccc54)ncnc32)[C@H](O)[C@@H]1O (stereo partly shown) [Example 21, N^6-[2,3-dihydro-1H-inden-1-yl]methyladenosine] | 9 nM | –
COc1cccc2c1CCC[C@@H]2Nc1ncnc2c1ncn2[C@@H]1O[C@H](CO)[C@@H](O)[C@H]1O [Example 10, (S)-N^6-[5-methoxy-1-aminotetralin]-adenosine] | 19 nM | –
COc1ccc2c(c1)C(Nc1ncnc3c1ncn3[C@@H]1O[C@H](CO)[C@@H](O)[C@H]1O)CCC2 (single isomer, unassigned) [Example 8] | 21 nM | –
COc1ccc2c(c1)CCCC2Nc1ncnc2c1ncn2[C@@H]1O[C@H](CO)[C@@H](O)[C@H]1O (stereo partly shown) [Example 6, N^6-[1-(6-Methoxy)-tetralinyl]-adenosine] | 126 nM | –
OC[C@H]1O[C@@H](n2cnc3c(NC4CCCc5c(O)cccc54)ncnc32)[C@H](O)[C@@H]1O (stereo partly shown) [Example 16, N^6-[1-(5-hydroxy)-tetralinyl]-adenosine] | 36 nM | change in HR (Heart Rate) (conscious rat; 3 mg/kg, Hour 9, conscious rat): 0%
OC[C@H]1O[C@@H](n2cnc3c(NCC4(O)CCCc5ccccc54)ncnc32)[C@H](O)[C@@H]1O (stereo partly shown) [Example 23, N^6-[1-hydroxy-1-tetralinyl]methyl adenosine] | 108 nM | –
OC[C@H]1O[C@@H](n2cnc3c(NCC4(O)CCCCc5ccccc54)ncnc32)[C@H](O)[C@@H]1O (stereo partly shown) [Example 27, N^6-(1-hydroxy-1-benzocycloheptyl]methyladenosine] | 445 nM | –
CC(=O)OC[C@H]1O[C@@H](n2cnc3c(NC4CCCc5ccccc54)ncnc32)[C@H](O)[C@@H]1O (stereo partly shown) [Example 15, N^6-(1-tetralinyl)-5'-acetyl-adenosine] | 500 nM | –
CC(=O)Oc1ccccc1C(=O)OC[C@H]1O[C@@H](n2cnc3c(NC4CCCc5ccccc54)ncnc32)[C@H](O)[C@@H]1O (stereo partly shown) [Example 14, N^6-(1-tetralinyl)-5'-O-(O-acetylsalicoyl)adenosine] | 8220 nM | –
OC[C@H]1O[C@@H](n2cnc3c(NCC4(O)CCc5ccccc54)ncnc32)[C@H](O)[C@@H]1O (stereo partly shown) [Example 25, N^6-[2,3-dihydro-1-hydroxy-1H-inden-1-yl]methyladenosine] | 120 nM | –
OC[C@H]1O[C@@H](n2cnc3c(NC4CCCc5ccccc54)ncnc32)C(O)[C@@H]1O (stereo in doubt) [Example 1, (R,S)-N^6-[1-Tetralinyl]-adenosine] | 59 nM | change in HR (Heart Rate) (conscious rat; 10 mg/kg, Hour 9, conscious rat): 0%
COc1ccc2c(c1)C(Nc1ncnc3c1ncn3[C@@H]1O[C@H](CO)[C@@H](O)[C@H]1O)CCC2 (single isomer, unassigned) [Example 5, N6-[1-(7-Methoxy)-tetralinyl]-adenosine] | 40 nM | change in HR (Heart Rate) (conscious rat; 3 mg/kg, Hour 1, conscious rat): 0%
OC[C@H]1O[C@@H](n2cnc3c(NCC4=CCCc5ccccc54)ncnc32)[C@H](O)[C@@H]1O [Example 24, N^6-[3,4-dihydro-1-naphthalenyl]methyladenosine] | 159 nM | –
OC[C@H]1O[C@@H](n2cnc3c(NCC4CCCCc5ccccc54)ncnc32)[C@H](O)[C@@H]1O (stereo partly shown) [Example 28, N^6-(1-benzocycloheptyl)methyladenosine] | 208 nM | –
OC[C@H]1O[C@H](n2cnc3c(NC4CCCc5ccccc54)ncnc32)[C@H](O)[C@@H]1O (stereo partly drawn) [Example 3, (S)-N^6-[1-Tetralinyl]-adenosine] | 403 nM | change in HR (Heart Rate) (conscious rat; 10 mg/kg, Hour 5, conscious rat): 0%
COc1cccc2c1CCCC2Nc1ncnc2c1ncn2[C@@H]1O[C@H](CO)[C@@H](O)[C@H]1O (stereo partly shown) [Example 7, N^6-[5-Methoxy-1-aminotetralin]-adenosine] | 42 nM | –
Cc1cc(C)c2c(c1)C(Nc1ncnc3c1ncn3[C@@H]1O[C@H](CO)[C@@H](O)[C@H]1O)CCC2 (stereo partly shown) [Example 18, N^6-[1-(5,7-dimethyl)-tetralinya]-adenosine] | 20 nM | –
